Reference: ChEMBL document CHEMBL3885861, “Open TG-GATES”

Species on record: Rattus norvegicus
Experiment: Open TG-GATES - Regimen: Daily Repeat
Type: toxicity, organism-based, Sprague-Dawley
Parameters: regimen Daily Repeat, gender Male, age 6 weeks
Conditions: in vivo, po, 10 mg/kg, route gavage, dose level Middle; for APTT / Bas / Eos / Fbg / Hb / Ht / Lym / MCH / MCHC / MCV / Mono / Neu / PT / Plat / RBC / Ret / WBC: tissue Blood; for KIDNEY_L / KIDNEY_R / KIDNEY_TOTAL: tissue Kidney; for LIVER: tissue Liver; for A/G / ALP / ALT / AST / BUN / CRE / Ca / Cl / DBIL / GLC / IP / K / LDH / Na / PL / RALB / TBIL / TC / TG / TP / gamma-GTP: tissue Plasma

## Cn1cnc([N+](=O)[O-])c1Sc1ncnc2nc[nH]c12 [AZATHIOPRINE]
72 h, time 3 day
  TERMINAL_BW: 204.1 g
  APTT: 20.4 s
  Bas: 0%
  Eos: 0.8%
  Fbg: 324.8 mg/dL
  Hb: 13.4 g/dL
  Ht: 39.3%
  Lym: 83.6%
  MCH: 21.4 pg
  MCHC: 33.9%
  MCV: 62.9 fL
  Mono: 2%
  Neu: 12.4%
  PT: 15.7 s
  Plat: 125.8 x10_4/uL
  RBC: 625.6 x10_4/ul
  Ret: 5.2%
  WBC: 72.4 x10_2/uL
  KIDNEY_L: 0.9 g
  KIDNEY_R: 0.9 g
  KIDNEY_TOTAL: 1.9 g
  LIVER: 9.8 g
  A/G: 1.2
  ALP: 1704 IU/L
  ALT: 41.4 IU/L
  AST: 73 IU/L
  BUN: 16.2 mg/dL
  CRE: 0.1 mg/dL
  Ca: 11.2 mg/dL
  Cl: 106.2 meq/L
  DBIL: 0 mg/dL
  GLC: 184.8 mg/dL
  IP: 7.2 mg/dL
  K: 4.2 meq/L
  LDH: 196.8 IU/L
  Na: 143 meq/L
  PL: 148.2 mg/dL
  RALB: 3.1 g/dL
  TBIL: 0.014 mg/dL
  TC: 77.4 mg/dL
  TG: 85.2 mg/dL
  TP: 5.7 g/dL
  gamma-GTP: 1 IU/L
[…], time 7 day
  TERMINAL_BW: 234.4 g
  APTT: 22.4 s
  Bas: 0%
  Eos: 1%
  Fbg: 325.8 mg/dL
  Hb: 13.7 g/dL
  Ht: 39%
  Lym: 83%
  MCH: 21.5 pg
  MCHC: 35.1%
  MCV: 61.5 fL
  Mono: 2.4%
  Neu: 12.4%
  PT: 15.4 s
  Plat: 143.7 x10_4/uL
  RBC: 635 x10_4/ul
  Ret: 6.2%
  WBC: 81.7 x10_2/uL
  KIDNEY_L: 1 g
  KIDNEY_R: 1 g
  KIDNEY_TOTAL: 2 g
  LIVER: 11.1 g
  A/G: 1.1
  ALP: 1444.2 IU/L
  ALT: 37.8 IU/L
  AST: 69.8 IU/L
  BUN: 18.2 mg/dL
  CRE: 0.1 mg/dL
  Ca: 10.7 mg/dL
  Cl: 105.8 meq/L
  DBIL: 0 mg/dL
  GLC: 193.2 mg/dL
  IP: 6.8 mg/dL
  K: 4.2 meq/L
  LDH: 265.2 IU/L
  Na: 142.8 meq/L
  PL: 166.4 mg/dL
  RALB: 3.1 g/dL
  TBIL: 0 mg/dL
  TC: 89.4 mg/dL
  TG: 104.6 mg/dL
  TP: 6 g/dL
  gamma-GTP: 1 IU/L
[…], time 14 day
  TERMINAL_BW: 294.1 g
  APTT: 21.7 s
  Bas: 0%
  Eos: 0.6%
  Fbg: 333 mg/dL
  Hb: 14 g/dL
  Ht: 40.1%
  Lym: 81.4%
  MCH: 21.1 pg
  MCHC: 35%
  MCV: 60.3 fL
  Mono: 1.6%
  Neu: 14.8%
  PT: 15.6 s
  Plat: 116.8 x10_4/uL
  RBC: 664.6 x10_4/ul
  Ret: 4.2%
  WBC: 93.4 x10_2/uL
  KIDNEY_L: 1.1 g
  KIDNEY_R: 1.2 g
  KIDNEY_TOTAL: 2.3 g
  LIVER: 13.4 g
  A/G: 1.1
  ALP: 1327.6 IU/L
  ALT: 33.4 IU/L
  AST: 62.8 IU/L
  BUN: 17.8 mg/dL
  CRE: 0.2 mg/dL
  Ca: 11.3 mg/dL
  Cl: 105.2 meq/L
  DBIL: 0 mg/dL
  GLC: 200.2 mg/dL
  IP: 6.8 mg/dL
  K: 4 meq/L
  LDH: 161 IU/L
  Na: 143 meq/L
  PL: 174.4 mg/dL
  RALB: 3.2 g/dL
  TBIL: 0.006 mg/dL
  TC: 93.8 mg/dL
  TG: 93.4 mg/dL
  TP: 6.2 g/dL
  gamma-GTP: 1.8 IU/L
[…], time 28 day
  TERMINAL_BW: 329.3 g
  APTT: 22.4 s
  Bas: 0%
  Eos: 1.4%
  Fbg: 347.6 mg/dL
  Hb: 11.8 g/dL
  Ht: 34.5%
  Lym: 74%
  MCH: 19.3 pg
  MCHC: 33.9%
  MCV: 56.9 fL
  Mono: 3.2%
  Neu: 19.4%
  PT: 16.5 s
  Plat: 95.9 x10_4/uL
  RBC: 615.2 x10_4/ul
  Ret: 2.4%
  WBC: 54.1 x10_2/uL
  KIDNEY_L: 1.3 g
  KIDNEY_R: 1.3 g
  KIDNEY_TOTAL: 2.6 g
  LIVER: 13.3 g
  A/G: 1.1
  ALP: 971.6 IU/L
  ALT: 82 IU/L
  AST: 182.8 IU/L
  BUN: 20.8 mg/dL
  CRE: 0.2 mg/dL
  Ca: 10.7 mg/dL
  Cl: 107 meq/L
  DBIL: 0.034 mg/dL
  GLC: 169.4 mg/dL
  IP: 6.3 mg/dL
  K: 3.9 meq/L
  LDH: 602 IU/L
  Na: 141.4 meq/L
  PL: 169.6 mg/dL
  RALB: 3.3 g/dL
  TBIL: 0.066 mg/dL
  TC: 102 mg/dL
  TG: 63.4 mg/dL
  TP: 6.4 g/dL
  gamma-GTP: 1.2 IU/L
